# Test results as given in ChEMBL document CHEMBL1133821, “Synthesis and antiinflammatory, analgesic activity of 3,3'-(1,2-ethanediyl)-bis[2-aryl-4-thiazolidinone] chiral compounds. Part 10” (Bioorg Med Chem Lett, 2001).
# Experiments:
# Rattus norvegicus [1] = assay: Reaction time in Hot plate test at a dose of 100 mg/kg perorally in rats after 60 min (p<0.05); format: functional; details: route oral
# [2] = (§1) Animals with Hyperemia in Carrageenan-induced paw edema test at a dose of 50 mg/kg perorally in rats; format: functional; details: route oral
# Rattus norvegicus [3] = assay: Percent Edema variation in Carrageenan-induced paw edema test at a dose of 100 mg/kg perorally in rats after 60 min; format: functional; details: route oral
# Rattus norvegicus [4] = assay: Percent Edema variation in Carrageenan-induced paw edema test at a dose of 100 mg/kg perorally in rats after 120 min (p<0.001); format: functional; details: route oral
# Rattus norvegicus [5] = assay: Animals with Hyperemia in Carrageenan-induced paw edema test at a dose of 100 mg/kg perorally in rats; format: functional; details: route oral
# Rattus norvegicus [6] = assay: Reaction time in Hot plate test at a dose of 100 mg/kg perorally in rats after 180 min; format: functional; details: route oral
# Rattus norvegicus [7] = assay: Number of writhings in Acetic acid Writhing test at a dose of 100 mg/kg perorally in rats; format: functional; details: route oral
# Rattus norvegicus [8] = assay: Reaction time in Hot plate test at a dose of 100 mg/kg perorally in rats after 120 min; format: functional; details: route oral
# [9] = Percent Edema variation in Carrageenan-induced paw edema test at a dose of 50 mg/kg perorally in rats after 180 min (p<0.001); format: functional; details: route oral
# [10] = (§2) Animals with Ulcers in Carrageenan-induced paw edema test at a dose of 50 mg/kg perorally in rats; format: functional; details: route oral
# [11] = Minimum concentration which causes 50% of the Artemia salina larvae to lose mobility; format: ADME, organism-based; details: in vivo
# [12] = Peroral dose causing 50% death of the mice population; format: ADME, organism-based; details: mouse, in vivo, po
# Rattus norvegicus [13] = assay: Animals with Ulcers in Carrageenan-induced paw edema test at a dose of 100 mg/kg perorally in rats; format: functional; details: route oral
# Rattus norvegicus [14] = assay: Percent Edema variation in Carrageenan-induced paw edema test at a dose of 100 mg/kg perorally in rats after 180 min (p<0.001); format: functional; details: route oral
# Rattus norvegicus [15] = assay: Analgesic activity was determined using acetic acid writing test at a dose of 100 mg/kg perorally in rats.(p<0.05); format: functional; details: route oral
# [16] = (§3) Percent Edema variation in Carrageenan-induced paw edema test at a dose of 50 mg/kg perorally in rats after 120 min (p<0.01); format: functional; details: route oral
# [17] = (§4) Percent Edema variation in Carrageenan-induced paw edema test at a dose of 50 mg/kg perorally in rats after 60 min; format: functional; details: route oral
# Rattus norvegicus [18] = assay: Number of writhings in Acetic acid Writhing test at a dose of 5 mg/kg perorally in rats; format: functional; details: route oral
# Rattus norvegicus [19] = assay: Reaction time in Hot plate test at a dose of 5 mg/kg perorally in rats after 180 min (p<0.01); format: functional; details: route oral
# Rattus norvegicus [20] = assay: Percent Edema variation in Carrageenan-induced paw edema test at a dose of 5 mg/kg perorally in rats after 60 min; format: functional; details: route oral
# Rattus norvegicus [21] = assay: Analgesic activity was determined using acetic acid writing test at a dose of 5 mg/kg perorally in rats. (p<0.01); format: functional; details: route oral
# Rattus norvegicus [22] = assay: Percent Edema variation in Carrageenan-induced paw edema test at a dose of 5 mg/kg perorally in rats after 120 min; format: functional; details: route oral
# Rattus norvegicus [23] = assay: Reaction time in Hot plate test at a dose of 5 mg/kg perorally in rats after 60 min (p<0.01); format: functional; details: route oral
# Rattus norvegicus [24] = assay: Reaction time in Hot plate test at a dose of 5 mg/kg perorally in rats after 120 min (p<0.01); format: functional; details: route oral
# Rattus norvegicus [25] = assay: Animals with Hyperemia in Carrageenan-induced paw edema test at a dose of 5 mg/kg perorally in rats; format: functional; details: route oral
# Rattus norvegicus [26] = assay: Animals with Ulcers in Carrageenan-induced paw edema test at a dose of 5 mg/kg perorally in rats; format: functional; details: route oral
# Rattus norvegicus [27] = assay: Percent Edema variation in Carrageenan-induced paw edema test at a dose of 5 mg/kg perorally in rats after 180 min (p<0.01); format: functional; details: route oral
# Rattus norvegicus [28] = assay: Reaction time in Hot plate test at a dose of 50 mg/kg perorally in rats after 180 min (p<0.01); format: functional; details: route oral
# Rattus norvegicus [29] = assay: Reaction time in Hot plate test at a dose of 50 mg/kg perorally in rats after 60 min (p<0.01); format: functional; details: route oral
# Rattus norvegicus [30] = assay: Number of writhings in Acetic acid Writhing test at a dose of 50 mg/kg perorally in rats; format: functional; details: route oral
# Rattus norvegicus [31] = assay: Reaction time in Hot plate test at a dose of 50 mg/kg perorally in rats after 120 min (p<0.01); format: functional; details: route oral
# Rattus norvegicus [32] = assay: as §2; format: functional; details: route oral
# Rattus norvegicus [33] = assay: Percent Edema variation in Carrageenan-induced paw edema test at a dose of 50 mg/kg perorally in rats after 180 min (p<0.01); format: functional; details: route oral
# Rattus norvegicus [34] = assay: Analgesic activity was determined using acetic acid writing test at a dose of 50 mg/kg perorally in rats. (p<0.01); format: functional; details: route oral
# Rattus norvegicus [35] = assay: Percent Edema variation in Carrageenan-induced paw edema test at a dose of 50 mg/kg perorally in rats after 120 min; format: functional; details: route oral
# Rattus norvegicus [36] = assay: as §4; format: functional; details: route oral
# [37] = Animals with Hyperemia in Carrageenan-induced paw edema test at a dose of 25 mg/kg perorally in rats; format: functional; details: route oral
# Rattus norvegicus [38] = assay: Reaction time in Hot plate test at a dose of 100 mg/kg perorally in rats after 120 min (p<0.01); format: functional; details: route oral
# Rattus norvegicus [39] = assay: Percent Edema variation in Carrageenan-induced paw edema test at a dose of 100 mg/kg perorally in rats after 180 min (p<0.01); format: functional; details: route oral
# Rattus norvegicus [40] = assay: Reaction time in Hot plate test at a dose of 100 mg/kg perorally in rats after 180 min (p<0.001); format: functional; details: route oral
# Rattus norvegicus [41] = assay: Percent Edema variation in Carrageenan-induced paw edema test at a dose of 25 mg/kg perorally in rats after 60 min (p<0.01); format: functional; details: route oral
# Rattus norvegicus [42] = assay: Percent Edema variation in Carrageenan-induced paw edema test at a dose of 50 mg/kg perorally in rats after 60 min (p<0.01); format: functional; details: route oral
# Rattus norvegicus [43] = assay: Percent Edema variation in Carrageenan-induced paw edema test at a dose of 25 mg/kg perorally in rats after 120 min (p<0.01); format: functional; details: route oral
# Rattus norvegicus [44] = assay: Percent Edema variation in Carrageenan-induced paw edema test at a dose of 100 mg/kg perorally in rats after 60 min (p<0.01); format: functional; details: route oral
# Rattus norvegicus [45] = assay: Analgesic activity was determined using acetic acid writing test at a dose of 100 mg/kg perorally in rats. (p<0.01); format: functional; details: route oral
# Rattus norvegicus [46] = assay: Percent Edema variation in Carrageenan-induced paw edema test at a dose of 25 mg/kg perorally in rats after 180 min (p<0.01); format: functional; details: route oral
# Rattus norvegicus [47] = assay: as §3; format: functional; details: route oral
# [48] = Animals with Ulcers in Carrageenan-induced paw edema test at a dose of 25 mg/kg perorally in rats; format: functional; details: route oral
# Rattus norvegicus [49] = assay: Reaction time in Hot plate test at a dose of 100 mg/kg perorally in rats after 60 min (p<0.01); format: functional; details: route oral
# Rattus norvegicus [50] = assay: Number of writhings in Acetic acid Writhing test at a dose of 100 mg/kg perorally in rats(p<0.05); format: functional; details: route oral
# Rattus norvegicus [51] = assay: Percent Edema variation in Carrageenan-induced paw edema test at a dose of 100 mg/kg perorally in rats after 120 min; format: functional; details: route oral
# Rattus norvegicus [52] = assay: as §1; format: functional; details: route oral
# Rattus norvegicus [53] = assay: Analgesic activity was determined using acetic acid writing test at a dose of 100 mg/kg perorally in rats.; format: functional; details: route oral
# Rattus norvegicus [54] = assay: Percent Edema variation in Carrageenan-induced paw edema test at a dose of 100 mg/kg perorally in rats after 180 min; format: functional; details: route oral
# Rattus norvegicus [55] = assay: Reaction time in Hot plate test at a dose of 100 mg/kg perorally in rats after 60 min; format: functional; details: route oral
# Rattus norvegicus [56] = assay: Percent Edema variation in Carrageenan-induced paw edema test at a dose of 50 mg/kg perorally in rats after 180 min; format: functional; details: route oral
# Rattus norvegicus [57] = assay: Percent Edema variation in Carrageenan-induced paw edema test at a dose of 100 mg/kg perorally in rats after 60 min (p<0.001); format: functional; details: route oral
SMILES,Reaction time (Rattus norvegicus [1]),Animals [2],Edema variation (Rattus norvegicus [3]),Edema variation (Rattus norvegicus [4]),Animals (Rattus norvegicus [5]),Reaction time (Rattus norvegicus [6]),No. of writhings (Rattus norvegicus [7]),Reaction time (Rattus norvegicus [8]),Animals [10],LC50 [11],LD50 [12],Animals (Rattus norvegicus [13]),Animals (Rattus norvegicus [32]),Edema variation (Rattus norvegicus [33]),Edema variation (Rattus norvegicus [35]),Edema variation (Rattus norvegicus [39]),Edema variation (Rattus norvegicus [42]),inhibition in vivo at 100 mg/kg (Rattus norvegicus [45]),Edema variation (Rattus norvegicus [51]),other results
COc1ccc([C@H]2SCC(=O)N2CCN2C(=O)CS[C@H]2c2ccc(OC)cc2)cc1,17 s,20%,20.23%,-75.9%,40%,15 s,11.3,15.6 s,0%,> 1000 µg/mL,> 1000 mg/kg,0%,,,,,,,,Edema variation [9]: -66.97%; Edema variation (Rattus norvegicus [14]): -96.42%; inhibition in vivo at 100 mg/kg (Rattus norvegicus [15]): 44%; Edema variation [16]: -49%; Edema variation [17]: 14.08%
COc1ccc2c(c1)c(CC(=O)O)c(C)n2C(=O)c1ccc(Cl)cc1 [INDOMETHACIN],,,,,,,,,,,15 mg/kg,,,,,,,,,No. of writhings (Rattus norvegicus [18]): 4; Reaction time (Rattus norvegicus [19]): 28 s; Edema variation (Rattus norvegicus [20]): -15.4%; inhibition in vivo at 5 mg/kg (Rattus norvegicus [21]): 80%; Edema variation (Rattus norvegicus [22]): -10.85%; Reaction time (Rattus norvegicus [23]): 26.1 s; Reaction time (Rattus norvegicus [24]): 27.1 s; Animals (Rattus norvegicus [25]): 100%; Animals (Rattus norvegicus [26]): 80%; Edema variation (Rattus norvegicus [27]): -50.86%
CCCCC1C(=O)N(c2ccccc2)N(c2ccccc2)C1=O [PHENYLBUTAZONE],,,,,100%,,,,,,300 mg/kg,,80%,-39.02%,-5.25%,,,,,Reaction time (Rattus norvegicus [28]): 31.7 s; Reaction time (Rattus norvegicus [29]): 28.3 s; No. of writhings (Rattus norvegicus [30]): 3.6; Reaction time (Rattus norvegicus [31]): 30 s; inhibition in vivo at 50 mg/kg (Rattus norvegicus [34]): 82%; Edema variation (Rattus norvegicus [36]): -20.27%
COc1ccc([C@H]2SCC(=O)N2CCN2C(=O)CS[C@H]2c2ccc(OC)c(OC)c2)cc1OC,,20%,,-62.33%,20%,,10,,0%,> 1000 µg/mL,> 1000 mg/kg,0%,,-44.26%,,-58.01%,-53.62%,51%,,Animals [37]: 20%; Reaction time (Rattus norvegicus [38]): 26.8 s; Reaction time (Rattus norvegicus [40]): 36.4 s; Edema variation (Rattus norvegicus [41]): -38.33%; Edema variation (Rattus norvegicus [43]): -53.28%; Edema variation (Rattus norvegicus [44]): -58.28%; Edema variation (Rattus norvegicus [46]): -40.09%; Edema variation (Rattus norvegicus [47]): -59.49%; Animals [48]: 0%; Reaction time (Rattus norvegicus [49]): 26.6 s
Cc1cccc([C@H]2SCC(=O)N2CCN2C(=O)CS[C@H]2c2cccc(C)c2)c1,18.4 s,,25.6%,,80%,11 s,,11.1 s,,> 1000 µg/mL,> 1000 mg/kg,20%,,,,-55.81%,,64%,-13.05%,No. of writhings (Rattus norvegicus [50]): 7.3
COc1cccc([C@H]2SCC(=O)N2CCN2C(=O)CS[C@H]2c2cccc(OC)c2)c1,,,,,20%,10.7 s,8.1,12 s,,> 1000 µg/mL,> 1000 mg/kg,0%,0%,,-8.15%,,-38.29%,,-12.7%,Animals (Rattus norvegicus [52]): 20%; inhibition in vivo at 100 mg/kg (Rattus norvegicus [53]): 60%; Edema variation (Rattus norvegicus [54]): 20.1%; Reaction time (Rattus norvegicus [55]): 12.1 s; Edema variation (Rattus norvegicus [56]): 29.59%; Edema variation (Rattus norvegicus [57]): -65.3%
